Reference: patent US10906878B2, “Kinase inhibitors for the treatment of disease” (Dana-Farber Cancer Institute, Inc., priority 2013, dated 2021)

Assays:
BTK = BTK (Homo sapiens (Human), UniProt Q06187); experiment: BTK kinase assay (LanthaScreen Kinase assay); format: biochemical
Experimental: BTK kinase assay was conducted using LanthaScreen® Kinase assay.
1. Optimization of kinase concentration required to determine ATP Km,app. The assay was first performed at a high concentration of ATP (1 mM) against a dilution series of kinase in order to determine the amount of kinase required to elicit an approximately 80% change between the minimum and maximum TR-FRET emission ratios (the EC80 value).
2. Determination of ATP Km,app. Using the concentration of enzyme determined in step 1, the assay was then performed against a dilution series of ATP in order to determine the amount of ATP required to elicit a 50% change between the minimum and maximum TR-FRET emission ratios (the EC50 value). This concentration of ATP was referred to as the “apparent” Km value for ATP, or the ATP Km,app.
3. Optimization of kinase concentration required for assay at ATP Km,app. Using the ATP Km,app concentration of ATP determined in step 2, the kinase titration was repeated in order to determine the concentration of kinase required to elicit an approximately 80% change between the minimum and maximum TR-FRET emission ratios at the ATP Km,app concentration of ATP (the EC80 value). This was the concentration of kinase that will be used in an assay to determine an IC50 value for a compound of the invention.
Using the ATP and kinase concentrations determined above, the reaction was then performed in the presence of a dilution series of various compounds of the invention, and the amount of compounds required to elicit a 50% change in TR-FRET ratio (the IC50) was determined. The experiments can be performed over two days, with steps one and two being performed on the first day, and step three and the inhibitor IC50 determination(s) being performed on the second day.

Ba/F3 TEL-JAK3 = Ba/F3 TEL-JAK3 (Homo sapiens, UniProt P52333); experiment: Inhibition of Ba/F3 TEL-JAK3 cell line; format: cell-based; conditions: read-out: IC50 (μM) Ba/F3 TEL-JAK3
Experimental: (§1) Growth and inhibition of growth was assessed by MTS assay. This assay, a colorimetric method for determining the number of viable cells, is based on the bioreduction of 3-(4,5-dimethylthiazol-2-yl)-5-(3-carboxymethoxyphenyl)-2-(4-sulfophenyl)-2H-tetrazolium (MTS) by cells to a formazan product that is soluble in cell culture medium, can be detected spectrophotometrically and was performed according to the manufacturer's recommended conditions. Ba/F3 cells were exposed to treatment for 72 hours and the number of cells used per experiment determined empirically to assure linear growth kinetics over that time period. All experimental points were set up in six to twelve wells and all experiments were repeated at least three times. […] The curves were fitted using a non-linear regression model with a sigmoidal dose response.

Ba/F3 TYK2_E957D = Ba/F3 TYK2_E957D (Homo sapiens (Human), UniProt P29597, E957D); experiment: Inhibition of Ba/F3 TYK2_E957D cell line; format: cell-based; conditions: read-out: IC50 (μM) Ba/F3 TYK2_E957D
Experimental: as §1

Ba/F3 TEL-ABL = Ba/F3 TEL-ABL (Homo sapiens, UniProt P00519); experiment: Inhibition of Ba/F3 TEL-ABL cell line; format: cell-based; conditions: read-out: IC50 (μM) Ba/F3 TEL-ABL
Experimental: as §1

Ba/F3 TEL-JAK2 = Ba/F3 TEL-JAK2 (Homo sapiens, UniProt O60674); experiment: Inhibition of Ba/F3 TEL-JAK2 cell line; format: cell-based; conditions: read-out: IC50 (μM) Ba/F3 TEL-JAK2
Experimental: as §1

Ba/F3 TEL-JAK1 = Ba/F3 TEL-JAK1 (Homo sapiens, UniProt P23458); experiment: Inhibition of Ba/F3 TEL-JAK1 cell line; format: cell-based; conditions: read-out: IC50 (μM) Ba/F3 TEL-JAK1
Experimental: as §1

[1] = biological target: EGFR Del/T790M Ba/F3 cells (Homo sapiens, UniProt P00533, T790M, cells depend on it, form not given); experiment: Ba/F3 cell growth inhibition (MTS assay), EGFR Del/T790M; format: cell-based; conditions: 100 nM drug; Table G
Excerpt: (§2) The specific cDNAs encoding the oncogenic alterations (EGFR: Del 19, L858R, L718Q, L844V, Del/T790M, L858R/T790M, Del 19/L718Q, Del 19/L844V, Del 19/T790M/L718Q and L858R/T790M/L718Q; FGFR: TEL-FGFR1, TEL-FGFR2, TEL-FGFR1 V561M, TEL-FGFR2 V561M; ALK: EML4-ALK; ROS1: CD74-ROS1) were cloned into the pDNA-Dual (BD Biosciences) vector using standard molecular biology techniques. Mutations were introduced using site-directed mutagenesis (Agilent) with mutant specific primers according to the manufacturer's instructions. All constructs were confirmed by DNA sequencing. The constructs were introduced into Ba/F3 cells using retroviral infection. Polyclonal cell lines were established by puromycin selection and subsequently cultured in the absence of interleukin-3 (IL-3). Uninfected Ba/F3 cells or cell lines expressing green fluorescent protein (GFP) were used as controls.
as §1

EGFR Del Ba/F3 cells = EGFR Del Ba/F3 cells (Homo sapiens, UniProt P00533, cells depend on it, form not given); experiment: Ba/F3 cell growth inhibition (MTS assay), EGFR Del; format: cell-based; conditions: 100 nM drug; Table G
Excerpt: as §2, §1

EGFR L858R Ba/F3 cells = EGFR L858R Ba/F3 cells (Homo sapiens (Human), UniProt P00533, L858R); experiment: Ba/F3 cell growth inhibition (MTS assay), EGFR L858R; format: cell-based; conditions: 100 nM drug; Table G
Excerpt: as §2, §1

[2] = biological target: EGFR L858R/T790M Ba/F3 cells (Homo sapiens (Human), UniProt P00533, L858R/T790M); experiment: Ba/F3 cell growth inhibition (MTS assay), EGFR L858R/T790M; format: cell-based; conditions: 100 nM drug; Table G
Excerpt: as §2, §1

Chain of BTK (Q06187 whole entry): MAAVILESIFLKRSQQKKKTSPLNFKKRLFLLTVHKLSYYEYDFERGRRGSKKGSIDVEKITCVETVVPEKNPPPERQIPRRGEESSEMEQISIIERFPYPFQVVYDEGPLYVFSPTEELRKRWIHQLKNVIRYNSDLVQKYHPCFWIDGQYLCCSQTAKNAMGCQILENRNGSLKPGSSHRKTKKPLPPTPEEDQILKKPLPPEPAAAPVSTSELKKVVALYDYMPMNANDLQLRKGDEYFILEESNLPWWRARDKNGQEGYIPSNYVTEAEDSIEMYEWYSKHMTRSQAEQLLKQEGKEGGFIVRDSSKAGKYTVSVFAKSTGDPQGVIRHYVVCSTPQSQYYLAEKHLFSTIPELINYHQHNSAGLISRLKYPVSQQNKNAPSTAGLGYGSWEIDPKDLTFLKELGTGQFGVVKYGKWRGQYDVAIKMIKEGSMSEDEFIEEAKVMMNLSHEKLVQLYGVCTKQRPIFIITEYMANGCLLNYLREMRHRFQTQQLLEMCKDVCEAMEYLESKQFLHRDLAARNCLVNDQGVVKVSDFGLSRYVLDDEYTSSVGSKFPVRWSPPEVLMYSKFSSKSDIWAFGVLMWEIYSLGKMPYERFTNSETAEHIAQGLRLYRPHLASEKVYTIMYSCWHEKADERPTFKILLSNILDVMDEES
Chain of Ba/F3 TYK2_E957D (P29597 whole entry E957D): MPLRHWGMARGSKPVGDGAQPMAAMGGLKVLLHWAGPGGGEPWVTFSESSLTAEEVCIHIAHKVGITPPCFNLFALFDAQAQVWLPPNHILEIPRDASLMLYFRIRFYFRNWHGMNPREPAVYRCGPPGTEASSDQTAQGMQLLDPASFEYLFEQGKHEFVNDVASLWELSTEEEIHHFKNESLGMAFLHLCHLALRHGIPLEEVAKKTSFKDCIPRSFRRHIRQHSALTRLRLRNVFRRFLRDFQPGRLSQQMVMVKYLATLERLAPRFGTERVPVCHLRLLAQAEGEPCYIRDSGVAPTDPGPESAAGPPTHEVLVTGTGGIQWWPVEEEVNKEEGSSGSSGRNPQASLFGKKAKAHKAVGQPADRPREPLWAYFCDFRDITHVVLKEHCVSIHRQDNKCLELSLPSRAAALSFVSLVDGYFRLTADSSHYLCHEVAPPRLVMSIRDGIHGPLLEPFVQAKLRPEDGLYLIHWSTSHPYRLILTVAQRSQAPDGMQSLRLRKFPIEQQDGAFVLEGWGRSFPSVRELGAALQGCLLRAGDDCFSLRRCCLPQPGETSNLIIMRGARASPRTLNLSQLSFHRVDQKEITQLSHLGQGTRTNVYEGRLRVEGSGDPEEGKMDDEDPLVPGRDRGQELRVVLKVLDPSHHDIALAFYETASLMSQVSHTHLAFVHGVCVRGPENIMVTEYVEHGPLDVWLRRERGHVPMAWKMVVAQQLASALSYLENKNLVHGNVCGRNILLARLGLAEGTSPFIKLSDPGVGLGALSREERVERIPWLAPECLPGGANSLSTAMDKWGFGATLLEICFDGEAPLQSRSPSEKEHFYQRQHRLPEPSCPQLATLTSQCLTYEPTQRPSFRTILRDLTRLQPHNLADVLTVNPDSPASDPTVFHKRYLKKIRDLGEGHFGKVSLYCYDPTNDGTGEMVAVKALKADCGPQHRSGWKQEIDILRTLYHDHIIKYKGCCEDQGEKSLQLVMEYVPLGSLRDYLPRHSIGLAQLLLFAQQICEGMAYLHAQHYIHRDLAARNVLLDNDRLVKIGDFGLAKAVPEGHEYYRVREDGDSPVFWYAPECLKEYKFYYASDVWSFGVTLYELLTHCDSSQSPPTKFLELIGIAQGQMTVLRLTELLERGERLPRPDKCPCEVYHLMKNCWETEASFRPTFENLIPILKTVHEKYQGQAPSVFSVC
Chain of Ba/F3 TEL-JAK2 (O60674 whole entry, looked up, change not shown): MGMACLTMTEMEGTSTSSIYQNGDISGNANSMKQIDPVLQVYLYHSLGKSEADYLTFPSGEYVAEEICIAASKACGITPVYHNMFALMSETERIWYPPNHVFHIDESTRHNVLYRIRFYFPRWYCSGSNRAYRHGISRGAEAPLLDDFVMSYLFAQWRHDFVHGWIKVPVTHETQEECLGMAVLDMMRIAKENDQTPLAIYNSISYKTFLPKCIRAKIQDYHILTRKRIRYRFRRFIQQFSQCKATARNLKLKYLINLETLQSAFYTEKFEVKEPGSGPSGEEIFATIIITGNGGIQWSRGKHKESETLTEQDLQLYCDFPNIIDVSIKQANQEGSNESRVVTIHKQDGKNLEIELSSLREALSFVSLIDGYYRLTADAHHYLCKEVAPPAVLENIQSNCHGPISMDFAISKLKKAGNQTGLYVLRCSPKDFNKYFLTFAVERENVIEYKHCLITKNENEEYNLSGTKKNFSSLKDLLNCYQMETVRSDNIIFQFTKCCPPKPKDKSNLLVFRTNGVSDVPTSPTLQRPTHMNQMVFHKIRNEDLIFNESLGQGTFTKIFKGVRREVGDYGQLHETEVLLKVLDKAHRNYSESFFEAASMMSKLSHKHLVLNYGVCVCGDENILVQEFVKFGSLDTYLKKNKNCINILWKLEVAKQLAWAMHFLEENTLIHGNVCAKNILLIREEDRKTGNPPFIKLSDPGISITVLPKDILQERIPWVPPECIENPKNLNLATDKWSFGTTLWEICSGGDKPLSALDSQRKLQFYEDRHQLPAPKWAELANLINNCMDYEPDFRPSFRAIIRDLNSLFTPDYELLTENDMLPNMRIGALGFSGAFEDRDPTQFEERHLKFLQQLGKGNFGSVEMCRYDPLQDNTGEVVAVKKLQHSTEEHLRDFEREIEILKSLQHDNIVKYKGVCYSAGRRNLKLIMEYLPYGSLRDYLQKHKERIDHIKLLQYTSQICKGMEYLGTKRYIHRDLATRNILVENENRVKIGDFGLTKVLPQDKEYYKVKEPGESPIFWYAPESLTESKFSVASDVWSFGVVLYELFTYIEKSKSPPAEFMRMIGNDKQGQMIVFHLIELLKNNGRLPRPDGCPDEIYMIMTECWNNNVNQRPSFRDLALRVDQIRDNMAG
Chain of Ba/F3 TEL-JAK1 (P23458 whole entry, looked up, change not shown): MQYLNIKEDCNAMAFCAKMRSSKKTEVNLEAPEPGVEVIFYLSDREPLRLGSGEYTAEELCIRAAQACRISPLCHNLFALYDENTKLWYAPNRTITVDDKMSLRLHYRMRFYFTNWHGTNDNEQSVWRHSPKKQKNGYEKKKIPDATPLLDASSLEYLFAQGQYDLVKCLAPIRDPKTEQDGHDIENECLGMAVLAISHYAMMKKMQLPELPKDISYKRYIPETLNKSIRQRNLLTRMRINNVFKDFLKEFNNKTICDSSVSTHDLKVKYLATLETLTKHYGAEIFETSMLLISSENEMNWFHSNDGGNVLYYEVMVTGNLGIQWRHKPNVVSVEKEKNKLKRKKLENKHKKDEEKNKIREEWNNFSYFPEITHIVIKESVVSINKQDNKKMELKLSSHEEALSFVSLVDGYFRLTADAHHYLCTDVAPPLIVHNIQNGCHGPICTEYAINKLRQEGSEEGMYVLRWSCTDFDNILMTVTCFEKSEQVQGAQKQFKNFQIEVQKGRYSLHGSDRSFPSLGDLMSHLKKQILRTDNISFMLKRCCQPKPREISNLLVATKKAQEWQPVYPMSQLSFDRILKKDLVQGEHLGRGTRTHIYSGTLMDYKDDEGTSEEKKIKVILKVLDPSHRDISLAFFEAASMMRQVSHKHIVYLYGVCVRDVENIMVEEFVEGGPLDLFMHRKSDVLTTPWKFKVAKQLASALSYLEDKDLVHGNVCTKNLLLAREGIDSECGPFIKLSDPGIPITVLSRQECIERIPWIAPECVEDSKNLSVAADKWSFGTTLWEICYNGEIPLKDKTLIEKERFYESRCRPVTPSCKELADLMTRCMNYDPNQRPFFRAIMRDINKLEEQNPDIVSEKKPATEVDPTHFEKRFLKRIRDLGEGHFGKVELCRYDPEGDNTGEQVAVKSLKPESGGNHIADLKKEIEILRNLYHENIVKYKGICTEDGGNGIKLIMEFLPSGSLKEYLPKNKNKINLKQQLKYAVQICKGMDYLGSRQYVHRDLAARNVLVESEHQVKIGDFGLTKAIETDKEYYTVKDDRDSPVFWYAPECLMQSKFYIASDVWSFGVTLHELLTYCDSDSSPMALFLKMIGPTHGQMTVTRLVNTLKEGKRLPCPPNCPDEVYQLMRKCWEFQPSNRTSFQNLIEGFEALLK

Compound	IC50 (BTK) [µM]	EGFR activity (% Control, 100 nM drug) Del/T790M [1] [% Control]	EGFR activity (% Control, 100 nM drug) Del (EGFR Del Ba/F3 cells) [% Control]	EGFR activity (% Control, 100 nM drug) L858R (EGFR L858R Ba/F3 cells) [% Control]	EGFR activity (% Control, 100 nM drug) L858R/T790M [2] [% Control]	also measured
C=CC(=O)Nc1cccc(N(C(=O)OCc2ccccc2)c2ccnc3[nH]ccc23)c1 [Compound 103A]	2.24					
C=CC(=O)Nc1cccc(N(C(=O)OCc2ccccc2)c2ccnc(Nc3cnn(C4CCOCC4)c3)n2)c1 [Compound 84A]						IC50 (Ba/F3 TEL-JAK3): 0.139 µM; IC50 (Ba/F3 TYK2_E957D): 4.17 µM; IC50 (Ba/F3 TEL-ABL): 11.3 µM; IC50 (Ba/F3 TEL-JAK2): 18.1 µM; IC50 (Ba/F3 TEL-JAK1): 7.41 µM
CN(C)C/C=C/C(=O)Nc1cccc(N(C(=O)OCc2ccccc2)c2ccnc3[nH]ccc23)c1 [Compound 104A]	> 10					
C=CC(=O)Nc1cccc(N(C(=O)NCc2ccccc2)c2cc(Nc3ccc(N4CCN(C)CC4)cc3)ncn2)c1 [Compound 29A]	0.0194	6	2	0	13	
C=CC(=O)Nc1cccc(N(C(=O)Nc2ccccc2)c2cc(Nc3ccc(N4CCN(C)CC4)cc3)ncn2)c1 [Compound 25A]	0.0312	53	14	1	24	
